Among the test systems are Pseudomonas aeruginosa 9; Vibrio cholerae CUN 09; Candida tropicalis; Candida albicans.
What all share (assay): ≥ marks a high value that may be exact or a test limit, other limits are often not marked, values filed in µg/mL are converted to µM
The subject of assay [1] is Enterococcus faecalis W61950.
Assay [2] concerns Pseudomonas aeruginosa 213.
In assay [3] the test system is Enterococcus faecalis f43559.
Assay [4] has as its system Pseudomonas aeruginosa H1030.
For assay [5], the system named is Pseudomonas aeruginosa PAO1 H103.
Assay [6] concerns Pseudomonas aeruginosa H1027.
Assay [7] has as its system Enterococcus faecium mic80.
Assay [8] concerns Enterococcus faecalis ATCC 29212.
In assay [9] the test system is Klebsiella pneumoniae ESBL 63575.
The subject of assay [10] is Staphylococcus aureus C623.
For assay [11], the system named is Enterococcus faecium t62764.
Assay [12] concerns Escherichia coli ESBL 63103.
In assay [13] the test system is Stenotrophomonas maltophilia ATCC 13637.
For assay [14], the system named is Enterobacter cloacae 218R.
Assay [15] deals with Pseudomonas aeruginosa LES400.
The test system of assay [16] is Klebsiella pneumoniae ESBL 61962.
In assay [17] the test system is Escherichia coli ESBL 64771.
Assay [18] relates to Pseudomonas aeruginosa 198.
For assay [19], the system named is Staphylococcus aureus ATCC 25923.
The test system of assay [20] is Bordetella bronchiseptica CUN 11844-99.
The test system of assay [21] is Staphylococcus aureus ATCC 43300.
Assay [22] deals with Pseudomonas aeruginosa CUN 4158-02.
Assay [23] relates to Escherichia coli ATCC 25922.
The test system of assay [24] is Pseudomonas aeruginosa ATCC 27853.
Assay [25] deals with Candida albicans ATCC 1023.
Assay [26] deals with Staphylococcus aureus NCTC 10788.
The subject of assay [27] is Enterococcus faecalis NCTC 12697.
The test system of assay [28] is Escherichia coli NCTC 10418.
Assay [29] deals with Escherichia coli ATCC 25726.
Assay [30] concerns Batrachochytrium dendrobatidis JEL-197.

Values after ≈ are worked out from the molar mass of the structure shown. A value given as a limit tells only on which side of the number the result lay.

`CC[C@H](C)[C@H](NC(=O)[C@H](Cc1ccccc1)NC(=O)[C@H](CCCCN)NC(=O)[C@H](Cc1ccccc1)NC(=O)[C@H](CCCN=C(N)N)NC(=O)[C@@H](N)CCCN=C(N)N)C(=O)N[C@@H](CCCN=C(N)N)C(=O)N[C@@H](Cc1c[nH]c2ccccc12)C(=O)N[C@@H](Cc1c[nH]c2ccccc12)C(=O)O` [RRFKFIRWW]: the MIC in assay [1] is at least 50.2 µM; in assay [2], 25.1 µM (≈ 35 µg/mL); in assay [3], 25.1 µM (≈ 35 µg/mL); in [4], 25.1 µM (≈ 35 µg/mL); in assay [5], 3.15 µM (≈ 4.4 µg/mL); in [6], 1.58 µM (≈ 2.2 µg/mL). Also, the MIC stood at 3.15 µM (≈ 4.4 µg/mL) in [7]; 6.17 µM (≈ 8.6 µg/mL) in assay [8]; 25.1 µM (≈ 35 µg/mL) in assay [9]; 3.15 µM (≈ 4.4 µg/mL) in [10]; 3.15 µM (≈ 4.4 µg/mL) in assay [11]; 6.17 µM (≈ 8.6 µg/mL) in assay [12]. Moreover, the MIC in [13] was 0.43 µM (≈ 0.6 µg/mL); in assay [14] it was 6.17 µM (≈ 8.6 µg/mL); in [15], 6.17 µM (≈ 8.6 µg/mL); in [16], at least 50.2 µM; in assay [17] it was 6.17 µM (≈ 8.6 µg/mL); in assay [18] it was 25.1 µM (≈ 35 µg/mL). Moreover, the MIC in assay [19] came out at 3.15 µM (≈ 4.4 µg/mL); against Pseudomonas aeruginosa 9, 12.2 µM (≈ 17 µg/mL).
In the case of `CC(C)C[C@H](NC(=O)[C@H](CCCCN)NC(=O)CNC(=O)[C@H](CCCCN)NC(=O)[C@H](Cc1ccccc1)NC(=O)[C@H](CCCCN)NC(=O)[C@H](Cc1c[nH]c2ccccc12)NC(=O)[C@H](CCCN=C(N)N)NC(=O)[C@H](Cc1ccccc1)NC(=O)[C@H](CCCN=C(N)N)NC(=O)[C@H](CCCN=C(N)N)NC(=O)[C@H](Cc1ccc(O)cc1)NC(=O)[C@H](CCCCN)NC(=O)[C@H](CCCCN)NC(=O)[C@H](CS)NC(=O)CN)C(=O)N[C@@H](Cc1ccccc1)C(=O)N[C@@H](CC(C)C)C(=O)N[C@@H](Cc1ccccc1)C(=O)NCC(N)=O` [GCKKYRRFRWKFKGKLFLFG], the MIC in assay [20] was determined as 1.56 µM (≈ 4 µg/mL); with Vibrio cholerae CUN 09 it was 6.24 µM (≈ 16 µg/mL); in assay [21], 3.12 µM (≈ 8 µg/mL); in assay [22], 6.24 µM (≈ 16 µg/mL); in [23], 3.12 µM (≈ 8 µg/mL); in assay [19], 3.12 µM (≈ 8 µg/mL).
On to `CSCC[C@H](NC(=O)[C@H](CC(=O)O)NC(=O)[C@@H](NC(=O)[C@@H](NC(=O)[C@H](C)NC(=O)[C@H](CC(N)=O)NC(=O)[C@H](CC(C)C)NC(=O)[C@H](C)NC(=O)[C@H](C)NC(=O)[C@H](CCCCN)NC(=O)CNC(=O)[C@H](C)NC(=O)[C@H](C)NC(=O)[C@H](CCCCN)NC(=O)CNC(=O)[C@@H](NC(=O)[C@H](CC(N)=O)NC(=O)[C@H](CCCCN)NC(=O)[C@H](CC(C)C)NC(=O)[C@H](CC(C)C)NC(=O)[C@@H](NC(=O)[C@H](CCCCN)NC(=O)[C@H](Cc1c[nH]c2ccccc12)NC(=O)[C@H](CC(C)C)NC(=O)[C@H](C)N)[C@@H](C)O)C(C)C)C(C)C)[C@@H](C)O)C(=O)N[C@H](C(=O)N[C@@H](CC(N)=O)C(=O)N[C@@H](CCC(N)=O)C(=O)O)C(C)C` [ALWKTLLKNVGKAAGKAALNAVTDMVNQ], for which the MIC is 40 µM (≈ 117 µg/mL) in assay [24]; 10.9 µM (≈ 31.9 µg/mL) in the assay on Candida tropicalis; 10 µM (≈ 29.3 µg/mL) in assay [8]; 10.9 µM (≈ 31.9 µg/mL) in assay [25]; 2.5 µM (≈ 7.32 µg/mL) in [23]; 21.8 µM (≈ 63.8 µg/mL) in the assay with Candida albicans. The MIC in assay [26] is 1.3 µM (≈ 3.8 µg/mL); in assay [27] it was 10 µM (≈ 29.3 µg/mL); in assay [19], 1.3 µM (≈ 3.8 µg/mL); in [28], 2.5 µM (≈ 7.32 µg/mL).
Take `CC[C@H](C)[C@H](NC(=O)[C@@H](NC(=O)[C@@H]1CCCN1C(=O)[C@H](CC(C)C)NC(=O)[C@@H](N)Cc1ccccc1)[C@@H](C)CC)C(=O)N[C@H](C(=O)N[C@@H](CC(N)=O)C(=O)N[C@@H](CC(C)C)C(=O)N[C@@H](CC(C)C)C(=O)NCC(=O)N[C@@H](CCCCN)C(=O)N[C@@H](CC(C)C)C(=O)N[C@@H](CC(C)C)C(N)=O)[C@@H](C)O` [FLPIITNLLGKLL]: the MIC in assay [29] is at least 100 µM; in assay [30] it was at least 100 µM; in assay [19], 6 µM (≈ 8.72 µg/mL).
Turning to `CC[C@H](C)[C@H](NC(=O)CN)C(=O)N[C@@H](CC(C)C)C(=O)N[C@@H](CC(=O)O)C(=O)N[C@H](C(=O)N[C@@H](Cc1ccccc1)C(=O)N[C@@H](CCCCN)C(=O)NCC(=O)N[C@H](C(=O)N[C@@H](C)C(=O)N[C@@H](CCCCN)C(=O)NCC(=O)N[C@H](C(=O)N[C@@H](C)C(=O)N[C@@H](CCCCN)C(=O)N[C@@H](CC(=O)O)C(=O)N[C@@H](CC(C)C)C(=O)N[C@@H](C)C(=O)N[C@H](C(=O)N[C@@H](Cc1cnc[nH]1)C(=O)N[C@@H](CCSC)C(=O)N[C@@H](CC(C)C)C(=O)N[C@@H](CCC(=O)O)C(=O)N[C@@H](CCCCN)C(=O)N[C@@H](CC(C)C)C(=O)N[C@@H](CCCCN)C(=O)N[C@H]1CSSC[C@@H](C(=O)O)NC(=O)CNC(=O)[C@H]([C@@H](C)O)NC(=O)[C@H](CCSC)NC(=O)[C@H](CCCCN)NC1=O)C(C)C)C(C)C)C(C)C)[C@@H](C)O` [GILDTFKGVAKGVAKDLAVHMLEKLKCKMTGC], the results for the MIC in assay [29], in [30] and in assay [19] were at least 40 µM, 25 µM (≈ 85.1 µg/mL) and 40 µM (≈ 136 µg/mL), respectively.
Regarding `CC[C@H](C)[C@H](NC(=O)[C@H](Cc1c[nH]c2ccccc12)NC(=O)[C@H](CCCCN)NC(=O)[C@@H](N)CCCN=C(N)N)C(=O)N[C@@H](Cc1c[nH]c2ccccc12)C(=O)N[C@@H](CCCN=C(N)N)C(=O)N[C@@H](Cc1c[nH]c2ccccc12)C(=O)N[C@@H](Cc1ccccc1)C(=O)N[C@@H](CC(C)C)C(=O)O` [RKWIWRWFL], the MIC was found to be 12.2 µM (≈ 17 µg/mL) in assay [1]; 3.16 µM (≈ 4.4 µg/mL) in assay [2]; 12.2 µM (≈ 17 µg/mL) in [3]; 1.58 µM (≈ 2.2 µg/mL) in assay [4]; 3.16 µM (≈ 4.4 µg/mL) in assay [5]; 0.791 µM (≈ 1.1 µg/mL) in [6]. Moreover, the MIC in assay [7] came out at 1.58 µM (≈ 2.2 µg/mL); in assay [8], 3.16 µM (≈ 4.4 µg/mL); in assay [9], 1.58 µM (≈ 2.2 µg/mL); in [10], 1.58 µM (≈ 2.2 µg/mL); in assay [11], 1.58 µM (≈ 2.2 µg/mL); in [12], 0.791 µM (≈ 1.1 µg/mL). Moreover, the MIC turned out to be 0.791 µM (≈ 1.1 µg/mL) in [13]; 1.58 µM (≈ 2.2 µg/mL) in assay [14]; 3.16 µM (≈ 4.4 µg/mL) in [15]; 1.58 µM (≈ 2.2 µg/mL) in assay [16]; 0.791 µM (≈ 1.1 µg/mL) in [17]; 1.58 µM (≈ 2.2 µg/mL) in assay [18]. Also, the MIC in assay [19] is 1.58 µM (≈ 2.2 µg/mL); against Pseudomonas aeruginosa 9, 6.18 µM (≈ 8.6 µg/mL).

The MIC is the lowest concentration found to suppress growth.

Values taken from DBAASP.
